This is an account of results in patent publication US20240092761A1, “QUINAZOLINE COMPOUNDS AND METHODS OF USE” (IAMBIC THERAPEUTICS, INC., priority 2022, published 2024).

The target in assay [1] is CDK2/Cyclin E1 full length (Homo sapiens (Human), UniProt P24941). Briefly: CDK2/Cyclin E1 Full Length ADP-Glo Kinase Assay. It is filed as biochemical. The following applies: 20 uM ATP, read-out: CDK2/ CyclinE1 IC50. In a few lines:
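Full-length human CDK2/Cyclin E1 (0.328 nM) pre-incubated 30 min with inhibitor at RT, then reacted 90 min at RT with 20 uM ATP (Km 64.78 uM) and 0.75 uM substrate in pH 7.5 HEPES, 2% DMSO. ADP measured by ADP-Glo luminescence; IC50 from 4-parameter fit of fractional velocity.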
In general terms: ADP-Glo turns the ADP formed in a reaction into a luminescent signal.

The subject of the next assay is MCF-7 cells. The assay is described as follows: Cell Growth Inhibition, MCF-7 (CellTiterGlo, 6 days). Format: cell-based. Particulars: MCF-7, 6-day treatment, CellTiterGlo 2.0. The gist of the method:
(§1)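 MCF-7 and OVCAR-3 cells (RPMI, 10% FBS) were seeded at 500 cells/well onto compound, typically 10–10,000 nM in half-log dilutions. Growth proceeded 6 days at 37 °C, then CellTiterGlo luminescence was read. % inhibition was taken versus control, and IC50 came from a four-parameter variable-slope fit.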

For a further assay, the target named is CDK6/Cyclin D3 (Homo sapiens (Human), UniProt Q00534). Briefly: CDK6/Cyclin D3 ADP-Glo Kinase Assay. Format: biochemical. The following applies: 100 uM ATP, read-out: CDK6/ CyclinD3 IC50. The gist of the method: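 Recombinant human CDK6/Cyclin D3 pre-incubated 30 min with inhibitor at room temperature, then reaction started with ATP/substrate and run 90 min at room temperature. ADP formed detected by ADP-Glo luminescence; IC50 from a 4-parameter fit of fractional velocity versus inhibitor concentration.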
Chain of CDK6/Cyclin D3 (Q00534 whole entry): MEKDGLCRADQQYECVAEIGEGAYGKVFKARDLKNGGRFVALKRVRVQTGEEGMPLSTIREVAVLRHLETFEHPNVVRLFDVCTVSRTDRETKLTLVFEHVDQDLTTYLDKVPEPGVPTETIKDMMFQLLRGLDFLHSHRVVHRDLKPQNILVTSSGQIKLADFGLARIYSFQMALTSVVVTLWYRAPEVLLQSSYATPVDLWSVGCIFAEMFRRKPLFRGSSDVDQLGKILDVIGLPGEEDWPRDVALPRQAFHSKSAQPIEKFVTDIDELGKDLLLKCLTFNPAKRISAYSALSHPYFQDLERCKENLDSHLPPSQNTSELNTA
Chain of CDK6/Cyclin D3 (P30281 whole entry partner): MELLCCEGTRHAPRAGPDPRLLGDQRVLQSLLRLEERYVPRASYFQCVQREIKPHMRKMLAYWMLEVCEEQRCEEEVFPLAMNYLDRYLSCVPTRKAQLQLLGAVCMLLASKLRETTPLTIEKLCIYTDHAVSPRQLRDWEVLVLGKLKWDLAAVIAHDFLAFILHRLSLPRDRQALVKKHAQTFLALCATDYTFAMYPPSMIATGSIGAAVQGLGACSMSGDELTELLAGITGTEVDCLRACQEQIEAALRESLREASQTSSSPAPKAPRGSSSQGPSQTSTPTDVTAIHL

The subject of another assay is OVCAR-3 cells. The assay is described as follows: Cell Growth Inhibition, OVCAR-3 (CellTiterGlo, 6 days). It is filed as cell-based. Particulars: OVCAR-3, 6-day treatment, CellTiterGlo 2.0. In a few lines: as §1
(ATP-based viability assays read luminescence as a measure of living cells.)

A further assay concerns the target CDK1/Cyclin B1 (Homo sapiens (Human), UniProt P06493). Briefly: CDK1/Cyclin B1 ADP-Glo Kinase Assay. Particulars: 80 uM ATP. It is filed as biochemical. The gist of the method:
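CDK1/cyclin B1 (4.917 nM) preincubated 30 min with inhibitor (2% DMSO), then 80 µM ATP (Km 78.6 µM) and 0.75 µM substrate added; 90 min, room temperature, pH 7.5. ADP measured by ADP-Glo luminescence; IC50 from 4-parameter fit.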

The next assay has as its target CDK4/Cyclin D1 (Homo sapiens (Human), UniProt P11802). The assay is described as follows: CDK4/Cyclin D1 CHEF Assay (AQT0258 peptide). Format: biochemical. The following applies: 200 uM ATP, read-out: CDK4/ CyclinD1 AQT IC50. The gist of the method:
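CDK4/Cyclin D1 (2.5 nM) phosphorylating 10 uM Sox-labelled peptide AQT0258 with 200 uM ATP (Km 195.2 uM), 10 mM MgCl2, 2% DMSO, 54 mM HEPES pH 7.5. Enzyme and inhibitor pre-incubated 30 min, reaction 3 hrs at 22° C.; CHEF fluorescence (ex 360/em 485 nm), IC50 from fractional velocity, 4-parameter fit.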

Chain of CDK1/Cyclin B1 (P06493 whole entry): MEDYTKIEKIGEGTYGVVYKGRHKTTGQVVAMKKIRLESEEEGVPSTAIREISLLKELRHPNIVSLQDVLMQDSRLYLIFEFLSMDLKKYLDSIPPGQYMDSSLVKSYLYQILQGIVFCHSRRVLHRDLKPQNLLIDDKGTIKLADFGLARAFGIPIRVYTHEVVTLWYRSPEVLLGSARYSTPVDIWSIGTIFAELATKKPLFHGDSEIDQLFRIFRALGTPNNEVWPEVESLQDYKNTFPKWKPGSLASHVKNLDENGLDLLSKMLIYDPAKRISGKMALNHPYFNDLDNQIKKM
Chain of CDK1/Cyclin B1 (P14635 whole entry partner): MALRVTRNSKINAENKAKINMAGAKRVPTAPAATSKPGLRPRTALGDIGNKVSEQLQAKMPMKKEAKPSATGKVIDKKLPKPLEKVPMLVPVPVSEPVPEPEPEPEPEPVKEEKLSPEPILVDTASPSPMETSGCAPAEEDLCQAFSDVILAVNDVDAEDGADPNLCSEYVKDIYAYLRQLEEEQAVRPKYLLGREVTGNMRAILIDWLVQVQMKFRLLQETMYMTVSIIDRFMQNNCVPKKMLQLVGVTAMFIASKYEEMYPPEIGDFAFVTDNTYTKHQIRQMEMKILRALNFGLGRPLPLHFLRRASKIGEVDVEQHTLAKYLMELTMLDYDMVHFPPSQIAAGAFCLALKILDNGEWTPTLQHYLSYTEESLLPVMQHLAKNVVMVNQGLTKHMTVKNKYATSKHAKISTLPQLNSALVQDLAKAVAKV
Chain of CDK4/Cyclin D1 (P11802 whole entry): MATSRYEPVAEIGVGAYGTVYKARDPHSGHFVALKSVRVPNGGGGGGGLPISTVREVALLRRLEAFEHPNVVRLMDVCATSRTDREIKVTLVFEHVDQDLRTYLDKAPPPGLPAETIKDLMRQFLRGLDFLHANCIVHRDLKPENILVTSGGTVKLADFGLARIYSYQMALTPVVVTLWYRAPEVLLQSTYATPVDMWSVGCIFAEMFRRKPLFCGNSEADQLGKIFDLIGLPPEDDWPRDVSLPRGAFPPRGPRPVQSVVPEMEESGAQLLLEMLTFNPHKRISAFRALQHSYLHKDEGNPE
Chain of CDK4/Cyclin D1 (P24385 whole entry partner): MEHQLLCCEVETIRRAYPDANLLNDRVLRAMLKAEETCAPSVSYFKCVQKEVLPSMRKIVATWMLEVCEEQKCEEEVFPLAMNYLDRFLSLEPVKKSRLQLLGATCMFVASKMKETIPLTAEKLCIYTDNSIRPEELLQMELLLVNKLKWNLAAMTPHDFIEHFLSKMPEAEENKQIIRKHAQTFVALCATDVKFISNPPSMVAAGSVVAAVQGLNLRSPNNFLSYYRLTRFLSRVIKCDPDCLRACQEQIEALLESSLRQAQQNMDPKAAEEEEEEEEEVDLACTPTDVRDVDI

`O=S(=O)(N1CCC(Nc2ncc3cc(C(F)F)cc(N4CCC5(CNC5)C4)c3n2)CC1)C1(C(F)F)CC1` [Example 88, 6-(difluoromethyl)-N-(1-((1-(difluoromethyl)cyclopropyl)sulfonyl)piperidin-4-yl)-8-(2,6-diazaspiro[3.4]octan-6-yl)quinazolin-2-amine]: the IC50 in assay [1] is less than 200 nM; with MCF-7 cells (Homo sapiens, MCF7, 144 h) it was 200 to 500 nM; at CDK6/Cyclin D3, less than 200 nM; with OVCAR-3 cells (Homo sapiens, 144 h), 200 to 500 nM; on CDK1/Cyclin B1, less than 200 nM; on CDK4/Cyclin D1, less than 200 nM.

As to `CN1Cc2ccc(Nc3ncc4cc(C(F)F)cc(N5CC6(C5)CN(C5CC5)C6)c4n3)cc2C1` [Example 65, 8-(6-cyclopropyl-2,6-diazaspiro[3.3]heptan-2-yl)-6-(difluoromethyl)-N-(2-methylisoindolin-5-yl)quinazolin-2-amine], the IC50 in assay [1] was less than 200 nM; in the assay with MCF-7 cells (Homo sapiens, MCF7, 144 h), 500 to 2000 nM; on CDK6/Cyclin D3, less than 200 nM; in the assay with OVCAR-3 cells (Homo sapiens, 144 h) it was 500 to 2000 nM; at CDK1/Cyclin B1, more than 2000 nM; on CDK4/Cyclin D1, less than 200 nM.

Regarding `CS(=O)(=O)N1CCC(Nc2ncc3cc(C(F)F)cc(C4CC(O)(C(F)F)C4)c3n2)CC1` (stereo not drawn) [Example 113, 1-(difluoromethyl)-3-(6-(difluoromethyl)-2-((1-(methylsulfonyl)piperidin-4-yl)amino)quinazolin-8-yl)cyclobutan-1-ol], the IC50 in assay [1] is less than 200 nM; in the assay on MCF-7 cells (Homo sapiens, MCF7, 144 h) it was 200 to 500 nM; on CDK6/Cyclin D3 it was less than 200 nM; in the assay on OVCAR-3 cells (Homo sapiens, 144 h), 200 to 500 nM; at CDK1/Cyclin B1, less than 200 nM; at CDK4/Cyclin D1 it was less than 200 nM.

As for `CS(=O)(=O)N1CCC(Nc2ncc3cccc(N4CC5(CNCC5(F)F)C4)c3n2)CC1` [Example 111, 8-(8,8-difluoro-2,6-diazaspiro[3.4]octan-2-yl)-N-(1-(methylsulfonyl)piperidin-4-yl)quinazolin-2-amine], the IC50 in assay [1] is less than 200 nM; in the assay with MCF-7 cells (Homo sapiens, MCF7, 144 h), 500 to 2000 nM; on CDK6/Cyclin D3 it was less than 200 nM; with OVCAR-3 cells (Homo sapiens, 144 h) it was 500 to 2000 nM; against CDK1/Cyclin B1, 500 to 2000 nM; on CDK4/Cyclin D1 it was less than 200 nM.

As for `CN1CC(n2cc(Nc3ncc4cc(C(F)F)cc(N5CC6(CN(C)C6)C5)c4n3)cn2)C1` [Example 59, 6-(difluoromethyl)-8-(6-6-methyl-2,6-diazaspiro[3.3]heptan-2-yl)-N-(1-(1-methylazetidin-3-yl)-1H-pyrazol-4-yl)quinazolin-2-amine], the IC50 was 500 to 2000 nM in assay [1]; more than 2000 nM in the assay with MCF-7 cells; 500 to 2000 nM at CDK6/Cyclin D3; more than 2000 nM in the assay on OVCAR-3 cells; more than 2000 nM against CDK1/Cyclin B1; 200 to 500 nM at CDK4/Cyclin D1.

Consider `CN1CC2(CCN(c3cc(C(F)F)cc4cnc(NC5CCN(c6ncc7ccn(C8CC8)c7n6)CC5)nc34)C2)C1` [Example 71, N-(1-(7-cyclopropyl-7H-pyrrolo[2,3-d]pyrimidin-2-yl)piperidin-4-yl)-6-(difluoromethyl)-8-(2-methyl-2,6-diazaspiro[3.4]octan-6-yl)quinazolin-2-amine], for which the IC50 is 200 to 500 nM in assay [1]; 500 to 2000 nM in the assay with MCF-7 cells (Homo sapiens, MCF7, 144 h); 500 to 2000 nM at CDK6/Cyclin D3; 500 to 2000 nM with OVCAR-3 cells (Homo sapiens, 144 h); more than 2000 nM at CDK1/Cyclin B1; less than 200 nM on CDK4/Cyclin D1.

Turning to `CS(=O)(=O)N1CCC(Nc2ncc3cc(C(F)F)cc(C4CC5(CCN(CCC(F)(F)F)C5)C4)c3n2)CC1` (stereo not drawn) [Example 101, 6-(difluoromethyl)-N-(1-(methylsulfonyl)piperidin-4-yl)-8-(6-(3,3,3-trifluoropropyl)-6-azaspiro[3.4]octan-2-yl)quinazolin-2-amine], the IC50 is less than 200 nM in assay [1]; 200 to 500 nM with MCF-7 cells (Homo sapiens, MCF7, 144 h); less than 200 nM at CDK6/Cyclin D3; 500 to 2000 nM in the assay with OVCAR-3 cells (Homo sapiens, 144 h); less than 200 nM against CDK1/Cyclin B1; less than 200 nM at CDK4/Cyclin D1.

For the compound `O=S(=O)(C1CC1)N1CCC(Nc2ncc3cc(C(F)F)cc(N4CC5(CCNC5)C4)c3n2)CC1` [Example 74, N-(1-(cyclopropylsulfonyl)piperidin-4-yl)-6-(difluoromethyl)-8-(2,6-diazaspiro[3.4]octan-2-yl)quinazolin-2-amine], the IC50 in assay [1] is less than 200 nM; with MCF-7 cells (Homo sapiens, MCF7, 144 h) it was 200 to 500 nM; on CDK6/Cyclin D3, less than 200 nM; in the assay on OVCAR-3 cells (Homo sapiens, 144 h), 200 to 500 nM; on CDK1/Cyclin B1, less than 200 nM; at CDK4/Cyclin D1, less than 200 nM.

In the case of `CS(=O)(=O)N1CCC(Nc2ncc3cccc(N4CC(F)(F)C5(CNC5)C4)c3n2)CC1` [Example 109, 8-(8,8-difluoro-2,6-diazaspiro[3.4]octan-6-yl)-N-(1-(methylsulfonyl)piperidin-4-yl)quinazolin-2-amine], the IC50 in assay [1] was less than 200 nM; in the assay on MCF-7 cells (Homo sapiens, MCF7, 144 h) it was 500 to 2000 nM; on CDK6/Cyclin D3, less than 200 nM; with OVCAR-3 cells (Homo sapiens, 144 h), 500 to 2000 nM; at CDK1/Cyclin B1 it was less than 200 nM; on CDK4/Cyclin D1, less than 200 nM.

For the compound `O=S(=O)(N1CCC(Nc2ncc3cc(C(F)F)cc(C4CC5(CCNC5)C4)c3n2)CC1)C1(C(F)F)CC1` (stereo not drawn) [Example 91, 6-(difluoromethyl)-N-(1-((1-(difluoromethyl)cyclopropyl)sulfonyl)piperidin-4-yl)-8-(6-azaspiro[3.4]octan-2-yl)quinazolin-2-amine], the IC50 was less than 200 nM in assay [1]; 200 to 500 nM in the assay on MCF-7 cells (Homo sapiens, MCF7, 144 h); less than 200 nM at CDK6/Cyclin D3; less than 200 nM in the assay with OVCAR-3 cells (Homo sapiens, 144 h); less than 200 nM at CDK1/Cyclin B1; less than 200 nM on CDK4/Cyclin D1.

Take `CN1CC2(CCN(c3cc(C(F)F)cc4cnc(NC5CCN(S(=O)(=O)C6CC6)CC5)nc34)C2)C1` [Example 77, N-(1-(cyclopropylsulfonyl)piperidin-4-yl)-6-(difluoromethyl)-8-(2-methyl-2,6-diazaspiro[3.4]octan-6-yl)quinazolin-2-amine]: the IC50 was less than 200 nM in assay [1]; 200 to 500 nM with MCF-7 cells (Homo sapiens, MCF7, 144 h); less than 200 nM at CDK6/Cyclin D3; 500 to 2000 nM with OVCAR-3 cells (Homo sapiens, 144 h); less than 200 nM against CDK1/Cyclin B1; less than 200 nM at CDK4/Cyclin D1.

As for `CS(=O)(=O)N1CCC(Nc2ncc3cc(C(F)F)cc(C4CC5(CCNC5)C4)c3n2)CC1` (stereo not drawn) [Example 70, 6-(difluoromethyl)-N-(1-(methylsulfonyl)piperidin-4-yl)-8-(6-azaspiro[3.4]octan-2-yl)quinazolin-2-amine], the IC50 is less than 200 nM in assay [1]; 200 to 500 nM with MCF-7 cells (Homo sapiens, MCF7, 144 h); less than 200 nM at CDK6/Cyclin D3; 200 to 500 nM in the assay with OVCAR-3 cells (Homo sapiens, 144 h); less than 200 nM at CDK1/Cyclin B1; less than 200 nM on CDK4/Cyclin D1.

Take `CS(=O)(=O)N1CCC(Nc2ncc3cc(C(F)F)cc(C4CC5(CCN(C6COC6)C5)C4)c3n2)CC1` (stereo not drawn) [Example 102, 6-(difluoromethyl)-N-(1-(methylsulfonyl)piperidin-4-yl)-8-(6-(oxetan-3-yl)-6-azaspiro[3.4]octan-2-yl)quinazolin-2-amine]: the IC50 is less than 200 nM in assay [1]; 200 to 500 nM in the assay with MCF-7 cells (Homo sapiens, MCF7, 144 h); less than 200 nM on CDK6/Cyclin D3; 200 to 500 nM in the assay on OVCAR-3 cells (Homo sapiens, 144 h); less than 200 nM on CDK1/Cyclin B1; less than 200 nM on CDK4/Cyclin D1.

For `CN1CC2(CCN(c3cc(C(F)F)cc4cnc(NC5CCN(S(=O)(=O)C6(C)CC6)CC5)nc34)C2)C1` [Example 83, 6-(difluoromethyl)-8-(2-methyl-2,6-diazaspiro[3.4]octan-6-yl)-N-(1-((1-methylcyclopropyl)sulfonyl)piperidin-4-yl)quinazolin-2-amine], the IC50 in assay [1] is less than 200 nM; in the assay with MCF-7 cells (Homo sapiens, MCF7, 144 h), 500 to 2000 nM; at CDK6/Cyclin D3, less than 200 nM; in the assay on OVCAR-3 cells (Homo sapiens, 144 h), 500 to 2000 nM; at CDK1/Cyclin B1 it was 200 to 500 nM; on CDK4/Cyclin D1, less than 200 nM.

On to `COCCN1CC2(C1)CN(c1cc(C(F)F)cc3cnc(NC4CCN(S(=O)(=O)C5CC5)CC4)nc13)C2` [Example 76, N-(1-(cyclopropylsulfonyl)piperidin-4-yl)-6-(difluoromethyl)-8-(6-(2-methoxyethyl)-2,6-diazaspiro[3.3]heptan-2-yl)quinazolin-2-amine], for which the IC50 is less than 200 nM in assay [1]; 500 to 2000 nM with MCF-7 cells (Homo sapiens, MCF7, 144 h); less than 200 nM on CDK6/Cyclin D3; 500 to 2000 nM with OVCAR-3 cells (Homo sapiens, 144 h); 500 to 2000 nM against CDK1/Cyclin B1; less than 200 nM at CDK4/Cyclin D1.
